The values below come from patent US8076452B2, “Streptavidin-binding peptide” (priority 2002, dated 2011).

Like-named read-outs stand apart in the source and are kept apart here.

Assay [1] addresses T1, streptavidin (Streptomyces avidinii, UniProt P22629). The assay is described as follows: Binding constants by surface plasmon resonance, BIAcore NTA chip, optimized measuring method. Particulars: peptide N-terminal of FABP, C-terminal Gly2-His8, 1,100 RU immobilized. From the text:
The information supplied by the substitution analysis was verified by determining the binding constants of different peptides by surface plasmon resonance spectroscopy using a BIAcore device. The measurements were made with the NTA sensor chip of the company BIAcore and by means of the fatty acid-binding protein from bovine hearts (FABP). The FABP served for the immobilization and presentation of the peptide. Further, it was intended to thus simulate the conditions occurring in an affinity chromatography, since the peptide is to be used in the future as an affinity peptide for the purification of proteins. In contrast to the first measurements, where the peptides to be verified replaced the four N terminal amino acids of the FABP, the arrangement of the peptides was this time also N terminal, but they were not part of the FABP. The His-tag necessary for the immobilization was also modified. It was located same as for the first measurements at the C terminus of the FABP, was however extended from six to eight histidines and further spaced by a linker consisting of two glycines from the FABP. Thereby, the immobilization of the ligands could distinctly be improved, and thus the drift of the base line resulting from the washing-off of the ligand could be minimized. For every measurement, an identical amount of the respective FABPs was immobilized, what corresponded to a rise of the base line by 1,100 resonance units (RU). As a reference was used the FABP with the His-tag, but without N terminal binding peptide.
The binding constants obtained with the optimized measuring method were the following: […]
A general note: Surface plasmon resonance follows binding to a sensor surface in real time, without labels.

For assay [2], the target named is T1, streptavidin. The assay is described as follows: Substitution analysis by spot synthesis on cellulose membrane, peroxidase-labeled streptavidin, luminescence. Format: binding. Particulars: peptide spots on cellulose membrane. From the text:
The binding peptide (FAx 3) with the sequence DVEAWLDERVPLVET [SEQ ID NO: 16] was subjected to a substitution analysis, and it was intended thereby to identify a possible minimum motif (=shortened peptide) and examine the effect of individual amino acid exchanges on the binding specificity. In a substitution analysis, peptides are synthesized by means of spot methods (Frank, R. 1992) on a cellulose membrane serving as a solid phase. Every position of the peptide comprising 15 amino acids was systematically replaced by the other 19 L amino acids.
The substitution analysis was incubated with a peroxidase-labeled streptavidin and developed with a luminescence substrate. Thereby it was possible to find out, how far the peptide can be shortened and which amino acids are “conserved” and thus not or only very poorly exchangeable. […] The substitution analysis also indicated positions, where the exchange of the original amino acid by another one could result in an improvement of the streptavidin binding.

The target of assay [3] is T1, streptavidin. As to the kind of experiment: Dissociation constant measurement, BiacoreX, NTA sensor chip (first measurements). It counts as binding. The settings on record: for Kd: FABP with N-terminal 15-aa peptide, C-terminal His6 on NTA chip. The text has this: Using standard methods for this technology, the FAB protein (fatty acid binding protein) (FABP) from bovine hearts was expressed in vitro in a cell-free protein biosynthesis by means of a coupled transcription/translation system. The expressed FAB protein had at the N terminus an additional streptavidin-binding peptide composed of 15 amino acids with different amino acid sequences as fusion partners.
Two binding peptides contain in their amino acid sequence the HPQ motif (motif 1 and 2) described in the prior art, and two of them contain the streptavidin-binding peptide according to SEQ ID NOS: 1-6 according to the invention (motif 3 and 4). In addition, the expressed proteins were provided at the C terminus with a “His-tag” consisting of 6 histidines. The proteins were purified by means of affinity chromatography via Ni2+IDA-agarose using standard methods. It can be seen that with equal length, binding peptides of a sequence according to the invention have a substantially lower dissociation constant than a binding peptide with HPQ motif.
The measurements of the dissociation constant were performed with a BiacoreX system and the sensor chip NTA of the company Biacore. The proteins generated during the expression described in Example 1 were investigated, i.e. FAB proteins, which had at the N terminus a peptide consisting of 15 amino acids as fusion partners and at the C terminus 6 histidines, which were needed for the immobilization on the sensor chip. The binding affinity of the proteins generated during the expression to streptavidin described in Example 1 was measured in the Biacore device according to manufacturer's instructions. The protein to be investigated is on the sensor chip, and a streptavidin solution having a defined concentration is sprayed in. The interaction (binding) between the two molecules is measured by the device and quantified as so-called resonance units (RU). For the measurement, the buffers specified by the manufacturer were used.

Assay [4] deals with T1, streptavidin. Particulars: prior art; read-out: dissociation constant Kd; cited from earlier work.
For a further assay, the target named is streptavidin-Sepharose (Streptomyces avidinii, UniProt P22629). As to the kind of experiment: Purification of the FABP fusion protein via streptavidin-Sepharose affinity column. The text has this:
(§1) Using standard methods, the FAB protein having at the N terminus an additional peptide consisting of 15 amino acids with the amino acid sequence DVEAWLDERVPLVET [SEQ ID NO: 16] (motif 3) as fusion partners, is expressed in vitro in a cell-free protein biosynthesis by means of a coupled transcription/translation system. For purification of the overexpressed defined protein, the streptavidin was coupled to a solid phase. As a solid phase was used a Sepharose. The expressed FAB protein was then purified using standard methods via a column comprising streptavidin-Sepharose or StrepTactin-Sepharose. For the purification the following buffers were used: washing buffer (100 mM Tris-HCl (pH 8.0), 150 mM NaCl, 1 mM EDTA).
(§2) For the elution of streptavidin, the washing buffer contained 2 mM biotin, and for the elution of StrepTactin, the washing buffer contained 2.5 mM desthiobiotin.
(§3) The percentage distribution of the used defined protein on the various fractions of the affinity chromatography can be taken from Table 3. In Table 3, D represents the application of sample/passage, W washing fraction, and E elution fraction.

A further assay concerns the target StrepTactin-Sepharose (Streptomyces avidinii, UniProt P22629, E68V/S69T/V71R). As to the kind of experiment: Purification of the FABP fusion protein via StrepTactin-Sepharose affinity column.
Source text: as §1, §2, §3

streptavidin-Sepharose, sequence (P22629 25-183): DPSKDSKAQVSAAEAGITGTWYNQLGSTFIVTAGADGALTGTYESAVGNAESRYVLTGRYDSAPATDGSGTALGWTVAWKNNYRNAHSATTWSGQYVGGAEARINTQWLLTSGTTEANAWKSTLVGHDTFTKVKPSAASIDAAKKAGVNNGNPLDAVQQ
T1 sequence (P22629 25-183, species assumed): as the sequence (P22629 25-183) above
StrepTactin-Sepharose, sequence (P22629 38-163 E68V/S69T/V71R): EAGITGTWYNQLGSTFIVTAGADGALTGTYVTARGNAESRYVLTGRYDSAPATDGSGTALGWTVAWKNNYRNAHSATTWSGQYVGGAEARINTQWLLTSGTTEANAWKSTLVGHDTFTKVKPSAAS

By Kd is commonly meant the constant that tells how readily two partners part at equilibrium. Consider DVEAWLDER, for which the Kd at streptavidin [1] (read-out: Kd) was 240 ± 40 nM. Moreover, the streptavidin binding result at streptavidin [2] is listed as “clearly better streptavidin binding”.

For DVEAWLGAR, on streptavidin [1] (read-out: Kd), the dissociation constant Kd stood at 17 ± 4 nM.

Consider DVEAWLDAR, for which, at streptavidin [1] (read-out: Kd), the Kd is 160 ± 30 nM.

On streptavidin [3], “DNYDADLAWDTHPQD [motif 2, D N Y D A D L A W D T H P Q D, reference compound]” yielded a Kd of 70000 nM. Also, the “resonance units (RU)” value was 64 RU at streptavidin [3] (Streptavidin conc. 3 μM); 98 RU at streptavidin [3] (Streptavidin conc. 6 μM); 201 RU at streptavidin [3] (Streptavidin conc. 15 μM); 337 RU at streptavidin [3] (Streptavidin conc. 30 μM); 536 RU at streptavidin [3] (Streptavidin conc. 60 μM).

On streptavidin [3], “DLYDIDRNWVGHPQG [motif 1, D L Y D I D R N W V G H P Q G, reference compound]” returned a Kd of 8000 nM. Also, the “resonance units (RU)” value on streptavidin [3] (Streptavidin conc. 500 nM) was 62 RU; at streptavidin [3] (Streptavidin conc. 1 μM), 123 RU; on streptavidin [3] (Streptavidin conc. 2 μM), 233 RU; at streptavidin [3] (Streptavidin conc. 4 μM), 407 RU; at streptavidin [3] (Streptavidin conc. 8 μM), 621 RU; on streptavidin [3] (Streptavidin conc. 16 μM), 779 RU. Moreover, the “resonance units (RU)” value at streptavidin [3] (Streptavidin conc. 32 μM) is 955 RU.

As for DVEAWFDER, at streptavidin [1], the Kd entry was “not measurable”.

With DVEAWLGERVPLVET, the Kd at streptavidin [1] (read-out: Kd) came out at 4.2 ± 0.7 nM.

Consider DVEAWL, for which the streptavidin binding result on streptavidin [2] is listed as “sufficient streptavidin binding”.

Turning to DVEAWLGARVPLVET, the Kd at streptavidin [1] (read-out: Kd) is 4.1 ± 0.6 nM.

For DVEAWRDER, the Kd result at streptavidin [1] is “not measurable”.

Take DVEAWLGER: the Kd at streptavidin [1] (read-out: Kd) was 17 ± 4 nM.

Consider WSHPQFEK [Strep-tag II], for which the Kd at streptavidin [4] is 18000 to 72000 nM.

For the substance DVDAWLDER, the Kd at streptavidin [1] (read-out: Kd) turned out to be 940 ± 140 nM.

Take “DVEAWIADPAVHFTT [motif 4, D V E A W I A D P A V H F T T]”: the Kd on streptavidin [3] came to 200 nM. The “resonance units (RU)” value at streptavidin [3] (Streptavidin conc. 30 nM) was 68 RU; at streptavidin [3] (Streptavidin conc. 60 nM), 171 RU; at streptavidin [3] (Streptavidin conc. 125 nM), 280 RU; at streptavidin [3] (Streptavidin conc. 250 nM), 384 RU; at streptavidin [3] (Streptavidin conc. 500 nM), 478 RU; at streptavidin [3] (Streptavidin conc. 1 μM), 560 RU. Also, the “resonance units (RU)” value on streptavidin [3] (Streptavidin conc. 2 μM) was determined as 644 RU.

For DVGAWLDER, the Kd on streptavidin [1] (read-out: Kd) worked out at 570 ± 90 nM.

“DVEAWLDERVPLVET [motif 3, D V E A W L D E R V P L V E T]”: the Kd at streptavidin [3] worked out at 84 nM; at streptavidin [1] (read-out: Kd) it was 3.6 ± 0.6 nM. Further, the “resonance units (RU)” value on streptavidin [3] (Streptavidin conc. 15 nM) was found to be 98 RU; at streptavidin [3] (Streptavidin conc. 30 nM), 242 RU; at streptavidin [3] (Streptavidin conc. 60 nM), 461 RU; at streptavidin [3] (Streptavidin conc. 125 nM), 613 RU; on streptavidin [3] (Streptavidin conc. 250 nM), 704 RU; at streptavidin [3] (Streptavidin conc. 500 nM) it was 786 RU. In addition, the “resonance units (RU)” value at streptavidin [3] (Streptavidin conc. 2 μM) was 946 RU; on streptavidin [3] (Streptavidin conc. 4 μM), 983 RU. The figures for the “percentage distribution of the protein, fraction D” value on streptavidin-Sepharose (application of sample/passage) and at StrepTactin-Sepharose (application of sample/passage) were 3.5% and 3.0%, respectively. In addition, the “percentage distribution of the protein, fraction E1” value on streptavidin-Sepharose (elution fraction 1, 2 mM biotin) is 0.4%; at StrepTactin-Sepharose (elution fraction 1, 2.5 mM desthiobiotin), 0.9%. For the same substance, the “percentage distribution of the protein, fraction E2” value was determined as 76.9% on streptavidin-Sepharose (elution fraction 2, 2 mM biotin) and 45.9% on StrepTactin-Sepharose (elution fraction 2, 2.5 mM desthiobiotin). For the same substance, the “percentage distribution of the protein, fraction E3” value was determined as 0.7% at streptavidin-Sepharose (elution fraction 3, 2 mM biotin) and 23.2% on StrepTactin-Sepharose (elution fraction 3, 2.5 mM desthiobiotin). The “applied protein recovered for the eluate” value at streptavidin-Sepharose (streptavidin-Sepharose) is reported as 78%; at StrepTactin-Sepharose (StrepTactin-Sepharose) it was 71%. The “applied protein recovered from the column” value on streptavidin-Sepharose (streptavidin-Sepharose) is on record as 90%; on StrepTactin-Sepharose (StrepTactin-Sepharose), 84%. Besides, the “percentage distribution of the protein, Tot.” value at streptavidin-Sepharose (sum of all fractions) stood at 89.6%; on StrepTactin-Sepharose (sum of all fractions), 84.4%. Also, the “percentage distribution of the protein, fraction W1” value on streptavidin-Sepharose (washing fraction 1) is 6.8%; at StrepTactin-Sepharose (washing fraction 1) it was 7.4%. Further, the “percentage distribution of the protein, fraction W2” value at streptavidin-Sepharose (washing fraction 2) is on record as 1.0%; at StrepTactin-Sepharose (washing fraction 2), 1.8%. In addition, the “percentage distribution of the protein, fraction W3” value at streptavidin-Sepharose (washing fraction 3) is listed as 0.3%; on StrepTactin-Sepharose (washing fraction 3) it was 0.9%. The “percentage distribution of the protein, fraction E4” value at StrepTactin-Sepharose (elution fraction 4, 2.5 mM desthiobiotin) came to 1.0%. Moreover, the “percentage distribution of the protein, fraction E5” value on StrepTactin-Sepharose (elution fraction 5, 2.5 mM desthiobiotin) turned out to be 0.3%.

As for AWRHPQFGG [Strep-tag I], the Kd on streptavidin [4] was 10000 to 37000 nM.

On to “MDEKTTGWRGGIIVVEGLAGELEQLRARLEHHPQGQREP [SBP-tag]”, for which, on streptavidin [4], the Kd is 2.5 nM.
